The values below come from PMC4048267, “Purification and Characterization of a Novel and Robust L-Asparaginase Having Low-Glutaminase Activity from Bacillus licheniformis: In Vitro Evaluation of Anti-Cancerous Properties” (PLoS ONE, 2014).

In the assay the test system is T1, L-asparaginase from Bacillus licheniformis RAM-8.
T1 construct: gene L-asparagine amidohydrolase
The settings on record: 25 °C; L-asparagine 2 to 20 mM; assay buffer 50 mM Tris-HCl pH 8.6.

For the compound `NC(=O)C[C@H](N)C(=O)O` [L-asparagine], the Km was 14 µM.
